Source: patent publication US11370769B2, “TRPC5 inhibitors and methods of using same” (BOARD OF REGENTS OF THE UNIVERSITY OF NEBRASKA, priority 2017, dated 2022)

Test system: AT1R Tg rats
Assay: AT1R Tg rat model of progressive FSGS
Type: in vivo
Description: Animals and chemicals: Littermates of wild-type (WT) and AT1R TgNeph-hAT1R/185 transgenic (AT1R Tg) rats were housed under a controlled environment with a 12-hour light-dark cycle and access to food and water ad libitum, unless otherwise described. All animal experiments were performed in accordance to the guidelines established and approved by the Animal Care and Use Committee at Brigham and Women's Hospital, Harvard Medical School (Animal Protocol No. 01538). AT1R Tg rats were placed in the Onset cohort when measured proteinuria was >5 mg/day (at approximately 12 weeks of age) on two separate 24-hour urine collections. AT1R Tg rats were placed in the Advanced cohort when measured proteinuria was >25 mg/day (at approximately 18 weeks of age) on two separate 24-hour urine collections. These thresholds were determined after detailed histologic and phenotypic characterization of AT1R Tg rats compared to WT littermates (all combined, n=91 WT rats and n=122 AT1R Tg rats were studied). The Dahl salt-sensitive (S) inbred strain is maintained at University of Mississippi Medical Center (UMMC) and was originally obtained from University of Toledo-College of Medicine (SS/Jr). All animal experiments performed at UMMC were in accordance to the guidelines established and approved by the Institutional Animal Care and Use Committee. Animals used for this studied were provided either low-salt diet [TD7034, 0.3% NaCl and/or high-salt diet [TD94217, 2.0% NaCl] from Harlan Teklad, Madison, Wis. For onset study, at 4 weeks of age, groups of age-matched male S were weaned to the low-salt diet and divided into two groups: vehicle (n=8) and AC1903 groups (n=8). At 6 weeks of age, both groups were placed on the high-salt diet and concurrently treated with either vehicle or AC1903 for 1-week (Onset). For Advanced study, similarly at 4 weeks of age, groups of age-matched male S were weaned to the low-salt diet and divided into two groups: vehicle (n=9) and AC1903 groups (n=11). At 6 weeks of age, both groups were placed on the high-salt diet. At week 7, concurrent with high-salt diet, animals were treated with either vehicle or AC1903 for 1-week (Advanced). At the conclusion of each study, animals were initially anesthetized under 2-3% isoflurane/O2 gas, a catheter attached to a fluid filled pressure transducer was placed in the aorta, isoflurane gas was reduced to 1.5%, and mean arterial pressure was measured for ˜5 min period using PowerLab 4/30 system (ADI Instruments, Co) as done previously. All chemicals were purchased from Sigma-Aldrich unless otherwise described.
Chemical preparation and IP administration: ML204 and AC1903 were prepared from powder in a single batch for each in vivo experiment to avoid variability. Immediately prior to injections, ML204 or AC1903 solution was placed on a heated shaker at 48° C. and 800 RPM. Vehicle was prepared in the same fashion. Injection volume was determined by body weight (2 mL vehicle/compound per kg body weight). Body weight was measured at the time of injection.
Urine collection and assay: For urine collections, rats were housed individually in a metabolic cage supplied with food and water. Urine was collected into a 50 mL falcon tube for 24 hours. Total urine volume was measured and then centrifuged at 3,200 rcf for 10 min at 4° C. Albumin quantification was done according to previously published protocol (11), involving multiple dilutions of urine from each animal compared to Bovine Serum Albumin (BSA) standards. Coumassie Blue stained gels were quantified by densitometry using ImageJ software. As an additional control, the rat ELISA Albumin kit (Exocell) was used for albumin quantification according to the manufacturer's recommendations and yielded the same results. Urine protein was measured using QuanTtest® Red Total Protein Assay System (Quantimetrix, Redondo Beach, Calif.) and expressed as mg protein/24 hours. […]

SMILES	proteinuria progression (Advanced cohort, 25 mg/kg twice daily i.p., at 7 days and 14 days)	podocyte pseudocyst formation (Advanced, ML204)	podocyte numbers (morphometric analysis) (Advanced, ML204 vs PBS-treated Tg rats)	BUN (ML204 treatment)	body weight (ML204 treatment)	creatinine (ML204 treatment)	proteinuria (Onset cohort, ML204 twice daily i.p. for 7 days)	numbers of podocytes per glomerulus (AC1903-treated AT1R Tg rats)	BUN (AC1903 treatment)	body weight (AC1903 treatment)	creatinine (AC1903 treatment)	podocyte numbers compared to vehicle treated controls (Advanced, AC1903 50 mg/kg)	pseudocyst formation (Advanced, AC1903 50 mg/kg)	proteinuria (Advanced, AC1903 50 mg/kg twice daily i.p. for 7 days)
Cc1cc(N2CCCCC2)nc2ccccc12 [ML204, reference compound]	suppressed progression of proteinuric disease	prevented pseudocyst formation	prevented podocyte loss	did not affect	did not affect	did not affect	complete suppression of proteinuria down to baseline levels	–	–	–	–	–	–	–
c1ccc(Cn2c(NCc3ccco3)nc3ccccc32)cc1 [AC1903]	–	–	–	–	–	–	–	approximately 120 podocytes/glom	did not affect	did not affect	did not affect	preserved numbers of podocytes	significant reduction in pseudocyst formation	sufficient to suppress severe proteinuria
